Patent US20020150912A1, “Reporter system for cell surface receptor-ligand binding” (priority 2000, published 2002)
Read-outs that look alike come from different tables or passages of the source.

Key:
chemokine receptor, CCR5 [1] = molecular target: T1, chemokine receptor, CCR5 (Homo sapiens, UniProt P51681); experiment: cell-based or functional assay
[2] = system: endogenous ATP receptors present in the HeLa cells; experiment: HF1 reporter cell luciferase assay, endogenous ATP receptors; assay type: cell-based; details: stimulation for 16 hours, read-out: EC50, TRE-mediated luciferase response
Method: FIG. 5 illustrates the response of endogenous ATP receptors present in the HeLa cells used to establish a reporter cell line, HF1, of the invention.
A. Dose-response curve following stimulation with varying concentrations of ATP for 16 hours. […] Error bars indicate± SEM.
(§1) The medium was removed and cell lysis buffer added. Plates were stored at −70° C. until further analysis.

chemokine receptor, CCR5 [3] = molecular target: T1, chemokine receptor, CCR5; experiment: HF1pCCR5 reporter cell luciferase assay; assay type: cell-based; design: All receptor ORFs were inserted into the pIRESpuro vector (Clontech) by standard techniques; expressed in transfected cells; host or cells: HeLa-derived HF1 reporter cells (HF1pCCR5), pIRESpuro vector; details: CCR5 stably expressed in HF1 reporter cells; read-out: EC50 (agonist concentration giving half maximum effect)
HeLa cells = experiment: Luciferase assay of HeLa cells transiently transfected with prototypic reporter plasmids; assay type: cell-based; details: Homo sapiens, 10 h, 100 nM PMA, or 100 nM PMA and 10^−6 M thapsigargin, read-out: Amplification value
Method: (§2) Cells electroporated for transient expression were stimulated with 100 nM PMA for 10 hours. Amplification was calculated as the ratio between the relative luminescence units (RLU) of stimulated and non-stimulated cells. Results are expressed as mean values+SEM of three to four independent transfection experiments each performed in triplicate; n.d.=not determined.
as §1
(§3) The prototypic reporter plasmids (pcFUS2; pcFUS2-6xSTAT/NFκB; pcFUS3 and pGL3-12xSTAT/NFκB) were used to transfect HeLa cells transiently by electroporation. Cells were stimulated 24 h post transfection with 100 nM PMA or 100 nM PMA and 10^−6 M thapsigargin or treated as controls. After 10 h of incubation, the cells were lysed and assayed.

[4] = system: reporter plasmids in HeLa cells; experiment: HeLa cells transiently transfected with reporter plasmids, luciferase amplification; assay type: cell-based; details: 100 nM PMA, 10^−6 M thapsigargin where added, 10 h, ratio of RLU, stimulated to non-stimulated cells
Method: as §2, §1, §3

[5] = plasmid pcFUS3 (6 × STAT/NFκB; 9 × AP-1)

T1 sequence (P51681 whole entry): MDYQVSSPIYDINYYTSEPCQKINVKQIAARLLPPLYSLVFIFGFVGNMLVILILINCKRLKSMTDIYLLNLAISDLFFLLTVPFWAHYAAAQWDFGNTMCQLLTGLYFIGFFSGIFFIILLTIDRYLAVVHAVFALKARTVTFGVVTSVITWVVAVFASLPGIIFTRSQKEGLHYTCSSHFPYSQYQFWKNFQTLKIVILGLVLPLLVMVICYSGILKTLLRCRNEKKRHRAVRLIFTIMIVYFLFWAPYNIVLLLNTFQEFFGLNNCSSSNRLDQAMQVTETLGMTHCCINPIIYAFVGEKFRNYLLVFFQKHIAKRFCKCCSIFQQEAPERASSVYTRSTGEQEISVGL

RANTES (from UniProt P13501 24-91) (ligand)
EC50 (agonist concentration giving half maximum effect), luciferase reporter in HF1 cells stably expressing CCR5 (chemokine receptor, CCR5 [1]): 111 nM

Nc1ncnc2c1ncn2[C@@H]1O[C@H](COP(=O)(O)OP(=O)(O)OP(=O)(O)O)[C@@H](O)[C@H]1O [ATP]
EC50 [2]: 107000 nM

RANTES: a peptide (having the sequence RANTES), agonist of the chemokine receptor CCR5
EC50 (chemokine receptor, CCR5 [3]): 111 nM

CCCCCCCCCCCCCC(=O)O[C@@H]1[C@@H](C)[C@@]2(O)[C@@H](C=C(CO)C[C@]3(O)C(=O)C(C)=C[C@@H]23)[C@@H]2C(C)(C)[C@]12OC(C)=O [PMA]
fold induction at 0.1 µM (HeLa cells; plasmid pGL3-12 × STAT/NFκB): 4.16 ± 2
fold induction at 0.1 µM (HeLa cells; plasmid pcFUS2 (9 × AP-1)): 2.53 ± 2
fold induction at 0.1 µM (HeLa cells; plasmid pcFUS2-6 × STAT/NFκB): 3.78 ± 1.44
fold induction at 0.1 µM (HeLa cells; [5]): 7.37 ± 3.29
Amplification value ([4]; plasmid pGL3-12 × STAT/NFκB): 4.16 ± 2.00
Amplification value ([4]; plasmid pcFUS2 (9 × AP-1)): 2.53 ± 2.00
Amplification value ([4]; plasmid pcFUS2-6 × STAT/NFκB): 3.78 ± 1.44
Amplification value [4, 5]: 7.37 ± 3.29
